How the values were obtained:
[1] = test system: T1, composite Cel-L-AChR with Dim-ACR-8 (29/38/63/L1 + Dim-ACR-8); set-up: species or system Xenopus laevis oocytes; Agonist-evoked currents in cRNA-injected oocytes, concentration-response normalized to 100 uM ACh; settings: Imax as % of 100 uM ACh response; agonist
T1 construct: mixed-species complex of whole subunits; cRNA in Xenopus laevis oocytes with C. elegans RIC-3, UNC-50, UNC-74; LEV-8 replaced by D. immitis ACR-8

[2] = target: T1, composite Cel-L-AChR with Dim-ACR-8 (29/38/63/L1 + Dim-ACR-8); assay: two-electrode voltage clamp, Xenopus oocytes; assay type: cell-based, Caenorhabditis elegans; Dirofilaria immitis; settings: read-out: Lev EC50; agonist; responses normalized to 100 μM ACh

T1 sequence (A0A2I6TEL0 22-518): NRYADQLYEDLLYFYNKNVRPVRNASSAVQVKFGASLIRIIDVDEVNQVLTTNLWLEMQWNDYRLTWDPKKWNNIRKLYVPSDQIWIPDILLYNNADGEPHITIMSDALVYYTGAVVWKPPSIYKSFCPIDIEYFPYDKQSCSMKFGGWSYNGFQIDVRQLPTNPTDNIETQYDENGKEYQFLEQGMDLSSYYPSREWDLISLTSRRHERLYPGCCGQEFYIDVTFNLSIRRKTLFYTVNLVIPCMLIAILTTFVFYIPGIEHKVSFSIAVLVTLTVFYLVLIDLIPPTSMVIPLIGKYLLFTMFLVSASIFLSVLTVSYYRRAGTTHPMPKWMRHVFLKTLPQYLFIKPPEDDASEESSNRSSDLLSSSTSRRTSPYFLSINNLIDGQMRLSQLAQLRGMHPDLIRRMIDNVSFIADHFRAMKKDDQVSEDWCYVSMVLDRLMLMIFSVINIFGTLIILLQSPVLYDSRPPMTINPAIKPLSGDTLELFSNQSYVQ
T1 sequence (Q23022 17-511, further chain): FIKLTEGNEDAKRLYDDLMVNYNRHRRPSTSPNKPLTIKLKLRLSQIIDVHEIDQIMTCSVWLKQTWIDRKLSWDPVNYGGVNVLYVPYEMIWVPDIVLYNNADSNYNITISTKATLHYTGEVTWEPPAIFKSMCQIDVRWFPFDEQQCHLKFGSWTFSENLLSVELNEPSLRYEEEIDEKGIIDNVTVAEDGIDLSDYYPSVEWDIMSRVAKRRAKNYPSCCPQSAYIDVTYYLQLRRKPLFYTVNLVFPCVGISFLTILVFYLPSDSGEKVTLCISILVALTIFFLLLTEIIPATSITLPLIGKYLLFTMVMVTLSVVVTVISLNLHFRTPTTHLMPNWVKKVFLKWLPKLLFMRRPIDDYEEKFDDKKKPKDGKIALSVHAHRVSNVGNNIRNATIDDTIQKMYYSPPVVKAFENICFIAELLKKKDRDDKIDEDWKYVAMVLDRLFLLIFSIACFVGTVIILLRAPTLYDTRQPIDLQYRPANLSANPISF
T1 sequence (Q9N587 24-502, further chain): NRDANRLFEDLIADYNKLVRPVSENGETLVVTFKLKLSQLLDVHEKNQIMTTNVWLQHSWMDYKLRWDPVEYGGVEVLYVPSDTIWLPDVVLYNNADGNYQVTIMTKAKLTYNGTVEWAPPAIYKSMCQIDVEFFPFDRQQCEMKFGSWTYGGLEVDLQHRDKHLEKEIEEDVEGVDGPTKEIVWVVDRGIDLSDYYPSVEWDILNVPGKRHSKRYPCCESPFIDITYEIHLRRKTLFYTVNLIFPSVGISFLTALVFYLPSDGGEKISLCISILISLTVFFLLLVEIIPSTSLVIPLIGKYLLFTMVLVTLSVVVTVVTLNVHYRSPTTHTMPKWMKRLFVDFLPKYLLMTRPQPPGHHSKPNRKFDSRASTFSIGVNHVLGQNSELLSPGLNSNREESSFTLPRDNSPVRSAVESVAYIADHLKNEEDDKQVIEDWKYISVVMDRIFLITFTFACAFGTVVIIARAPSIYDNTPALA
T1 sequence (P48181 27-493, further chain): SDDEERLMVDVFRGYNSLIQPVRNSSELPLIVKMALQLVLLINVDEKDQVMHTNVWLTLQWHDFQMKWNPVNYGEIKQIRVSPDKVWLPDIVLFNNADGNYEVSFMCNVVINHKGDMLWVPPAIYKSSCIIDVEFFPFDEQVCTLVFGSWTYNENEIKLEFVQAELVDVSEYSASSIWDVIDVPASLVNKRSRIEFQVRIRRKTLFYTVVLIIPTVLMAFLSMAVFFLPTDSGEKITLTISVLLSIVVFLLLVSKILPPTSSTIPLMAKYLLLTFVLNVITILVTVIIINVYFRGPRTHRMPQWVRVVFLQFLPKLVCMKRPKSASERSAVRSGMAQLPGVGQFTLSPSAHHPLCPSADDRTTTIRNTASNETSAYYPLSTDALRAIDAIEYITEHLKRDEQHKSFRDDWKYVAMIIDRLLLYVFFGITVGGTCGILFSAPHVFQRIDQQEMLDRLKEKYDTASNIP
T1 sequence (Q27218 32-507, further chain): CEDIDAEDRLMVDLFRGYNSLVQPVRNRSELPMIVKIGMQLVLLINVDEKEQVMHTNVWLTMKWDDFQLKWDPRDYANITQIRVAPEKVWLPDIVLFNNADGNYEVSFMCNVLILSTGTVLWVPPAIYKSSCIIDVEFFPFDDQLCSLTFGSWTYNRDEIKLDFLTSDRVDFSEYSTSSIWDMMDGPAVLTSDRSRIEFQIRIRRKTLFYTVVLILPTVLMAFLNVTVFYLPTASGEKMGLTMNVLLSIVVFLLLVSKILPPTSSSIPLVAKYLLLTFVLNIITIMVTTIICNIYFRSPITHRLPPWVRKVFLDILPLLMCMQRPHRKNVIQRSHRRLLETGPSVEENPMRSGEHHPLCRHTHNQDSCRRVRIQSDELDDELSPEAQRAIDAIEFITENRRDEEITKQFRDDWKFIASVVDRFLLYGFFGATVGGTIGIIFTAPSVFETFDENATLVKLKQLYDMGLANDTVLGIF

Q: `c1ccc([C@H]2CN3CCSC3=N2)cc1` [levamisole] was tested. Which “Lev Imax” value [1] did it give?
A: 29.0 ±1.2%

Q: And the EC50 [2]?
A: 5.9 ± 1.3 µM

Source: publication PMC5931475, “Deciphering the molecular determinants of cholinergic anthelmintic sensitivity in nematodes: When novel functional validation approaches highlight major differences between the model Caenorhabditis elegans and parasitic species” (PLoS Pathogens, 2018)
